US11135193B2, “Composition containing monoacetyldiacylglycerol compound as active ingredient for preventing or treating asthma” (Enzychem Lifesciences Corporation, priority 2013, dated 2021)
Where two headings read alike, the source gives them in different places. Marks after values point to notes of the source that are not given here.

Key:
[1] = test system: ovalbumin-induced asthma Balb/c mice; test: Airway hyperresponsiveness (Pehn, plethysmography) in ovalbumin-induced asthma model; type: in vivo, mouse
Procedure: (§1) 6-week-old female SPF (specific pathogen-free) Balb/c mice (average weight: 20 g) were purchased from Samtako (Korea). The animals were sufficiently fed with solid feed (antibiotic-free, Samyang Feed Co.) and water until the start point of the experiment, and acclimated at a temperature of 22±2° C., a humidity of 55±15%, and a 12-hr light/12-hr dark cycle for 1 week, and then used in experiments. After 1 week of the acclimation period as described above, the mice were sensitized by intraperitoneal administration of a suspension of 2 mg of aluminum oxide (A8222, Sigma-Aldrich, MO, USA) and 20 μg of ovalbumin (A5503, Sigma-Aldrich) in 200 μl of phosphate buffered saline at two-week intervals. During a period from day 21 to day 23 after the first intraperitoneal administration of ovalbumin, 1% ovalbumin was inhaled into the mice for 30 minutes using an ultrasonic nebulizer (NE-U12, Omron Corp., Japan). At 24 hours after the last ovalbumin challenge, the airway hyperresponsiveness of the mice was measured, and after 48 hours, the mice were anesthetized by intraperitoneal administration of Pentobarbital (50 mg/kg, Entobal, Hanil, Korea). Then, blood was collected through the saphenous vein, and the mice were subjected to tracheostomy. Next, each of the mice was subjected to bronchoalveolar lavage with a total of 1.4 ml of PBS to collect an analytical sample. […] The drug and the sample were administered orally during a period from day 18 to day 23 after the first ovalbumin […] (FIG. 1). Seven mice were used per group.
To measure airway hyperresponsiveness that is one of the major features of asthma, one chamber plethysmography (All Medicus, Korea) was used. The degree of airway resistance was evaluated by measuring enhanced pause (Pehn). For measurement of Pehn, the basis value was measured in a normal breathing state, and then PBS was inhaled for 3 minutes using an ultrasonic nebulizer, after which the Pehn value was measured for 3 minutes.

[2] = test system: ovalbumin-induced asthma Balb/c mice; test: Histopathological examination of lung tissue (H&E, PAS staining), ovalbumin-induced asthma model; type: in vivo, mouse
[3] = test system: interleukins (IL-4, IL-5 and IL-13); test: Th2 cytokines in bronchoalveolar lavage fluid (ELISA), ovalbumin-induced asthma model; type: in vivo, mouse; conditions: BALF
Procedure: as §1
The production of interleukins (IL-4, IL-5 and IL-13) in the bronchoalveolar lavage fluid isolated from each mouse was measured using a commercially available enzyme-linked immunosorbent assay (ELISA) kit (R&D System, USA). The analysis of each cytokine was performed according to the manufacturer's instruction, and the absorbance at 450 nm was measured using an ELISA reader (Molecular Devices, USA).

[4] = test system: ovalbumin-induced asthma Balb/c mice; test: Inflammatory cell count in bronchoalveolar lavage fluid, ovalbumin-induced asthma model; type: in vivo, mouse; conditions: BALF
Procedure: as §1
An increase in the number of eosinophils is one of the major features of asthma. Thus, in order to measure the number of eosinophils, the following experiment was performed. The bronchoalveolar lavage fluid from each mouse was stained with trypan blue immediately after collection, and the number of total cells (excluding dead cells) was calculated using a hemocytometer.

[5] = test system: sepsis animal model; conditions: cecal-ligation-puncture sepsis model; cited from earlier work
[6] = test system: serum IgE and ovalbumin-specific IgE; test: Serum IgE and ovalbumin-specific IgE (ELISA), ovalbumin-induced asthma model; type: in vivo, mouse
Procedure: as §1
The blood collected through the saphenous vein was incubated at room temperature for 30 minutes, and then centrifuged (3000 rpm, 15 min) to obtain serum. For measurement of serum IgE and ovalbumin-specific IgE, ELISA was used. IgE was measured using commercially available IgE (Biolegend Ins., USA). For measurement of ovalbumin-specific IgE, in a 96-well flat bottom ELISA plate, ovalbumin was dissolved in 0.1 M NaHCO3 buffer (pH 8.3) at a concentration of 20 μg/mL and incubated at 4° C. for 16 hours. Next, PBS containing 1% bovine serum albumin (BSA) was added to suppress nonspecific reactions. The serum sample was diluted at 1:400, allowed to react at room temperature for 2 hours, and then washed with PBS containing 0.05% Tween 20. Horseradish peroxidase (HRP)-conjugated goat […] polyclonal A was diluted 4000-fold and allowed to react at room temperature for 1 hour, and then color development was performed using 3,3′5,5′-tetramethylbenzidine substrate.

[7] = test system: EL-4 cells; conditions: mouse, 24 h
Procedure: EL-4 cells that are mouse T lymphoma cells were suspended in 10% fetal bovine serum-containing RPMI medium (Gibco) at a concentration of 5×10^4 cells/ml, and 100 μl of the cell suspension was seeded into each well of a 96-well plate and cultured for 12 hours. Next, the cell culture was treated with monoacetyldiacylglycerol (MADG) compounds at the concentrations shown in Table 1 below, and was then additionally cultured for 24 hours. Next, according to the instruction provided in a CCK-8 kit (Dojindo) capable of counting cells, 10 μl of CCK-8 solution was added to the kit and allowed to react for 30 minutes to 4 hours, and then the absorbance (OD) at 570 nm was measured. In equation 1, the negative control group indicates a cell culture treated with 0.2% DMSO. […] Cell viability (%)=[(OD 570 nm value of MADC-treated group)/(OD 570 nm value of negative control group)]×100 Equation 1

## CCCCC/C=C\C/C=C\CCCCCCCC(=O)OC(COC(C)=O)COC(=O)CCCCCCCCCCCCCCC (stereo not drawn) [EC-18, 1-palmitoyl-2-linoleoyl-3-acetylglycerol]
[1]; methacholine 0 mg/mL, 30 mg/kg oral
  Pehn value: 0.465 ± 0.08
[1]; methacholine 0 mg/mL, 60 mg/kg oral
  Pehn value: 0.436 ± 0.08
[1]; methacholine 12.5 mg/mL, 30 mg/kg oral
  Pehn value: 1.179 ± 0.49
[1]; methacholine 12.5 mg/mL, 60 mg/kg oral
  Pehn value: 0.778 ± 0.15
[1]; methacholine 25 mg/mL, 30 mg/kg oral
  Pehn value: 2.914 ± 0.67
[1]; methacholine 25 mg/mL, 60 mg/kg oral
  Pehn value: 2.436 ± 0.68
[1]; methacholine 50 mg/mL, 30 mg/kg oral
  Pehn value: 4.098 ± 0.78
[1]; methacholine 50 mg/mL, 60 mg/kg oral
  Pehn value: 3.887 ± 0.59
[1]; montelukast 30 mg/kg, EC-18 30 mg/kg and 60 mg/kg
  airway hyperresponsiveness / Pehn value compared to asthma-induced group: significantly decreased
[2]; H&E staining
  infiltration of inflammatory cells around the bronchi and blood vessels: decrease
[2]; PAS staining
  mucus secretion from goblet cells of the bronchial epithelium: significantly decreased
[3]
  secretion of IL-4 compared to asthma-induced group: significantly decreased
  secretion of IL-5 compared to asthma-induced group: significantly decreased
  secretion of IL-13 compared to asthma-induced group: significantly decreased
[3]; 30 mg/kg oral
  Th2 cytokines, IL-4: 17.89 ± 3.46 pg/mL
  Th2 cytokines, IL-5: 24.12 ± 3.07 pg/mL
  Th2 cytokines, IL-13: 97.27 ± 12.80 pg/mL
[3]; 60 mg/kg oral
  Th2 cytokines, IL-4: 17.09 ± 3.08 pg/mL
  Th2 cytokines, IL-5: 25.02 ± 2.91 pg/mL
  Th2 cytokines, IL-13: 81.10 ± 20.46 pg/mL
[4]; 30 mg/kg oral
  Inflammatory cell number, Eosinophils: 93 ± 16.4* 10^5 per mouse
  Inflammatory cell number, Lymphocytes: 16 ± 8.7 10^5 per mouse
  Inflammatory cell number, Macrophages: 82 ± 25.5* 10^5 per mouse
  Inflammatory cell number, Neutrophils: 15 ± 8.4 10^5 per mouse
  Inflammatory cell number, Total cells: 221 ± 33.5* 10^5 per mouse
[4]; 60 mg/kg oral
  Inflammatory cell number, Eosinophils: 112 ± 18.7* 10^5 per mouse
  Inflammatory cell number, Lymphocytes: 13 ± 8.7 10^5 per mouse
  Inflammatory cell number, Macrophages: 113 ± 27.4 10^5 per mouse
  Inflammatory cell number, Neutrophils: 12 ± 6.7 10^5 per mouse
  Inflammatory cell number, Total cells: 253 ± 12.8* 10^5 per mouse
[4]; groups administered with EC-18
  number of eosinophils compared to asthma-induced group: decrease
  number of total inflammatory cells compared to asthma-induced group: significant decrease
[5]
  survivability ratio of animals: Increases
[6]
  ovalbumin-specific IgE compared to asthma-induced group: significantly decreased
  serum IgE compared to asthma-induced group: significantly decreased
[6]; 30 mg/kg oral
  IgE: 2.35 ± 0.38 µg/mL
  OVA specific IgE: 295.36 ± 77.93 µg/mL
[6]; 60 mg/kg oral
  IgE: 2.27 ± 0.46 µg/mL
  OVA specific IgE: 287.79 ± 69.53 µg/mL
[7]; 5 μg/ml
  EL-4 cell viability (%, mean ± SD): 101.94 ± 1.47%
[7]; 10 μg/ml
  EL-4 cell viability (%, mean ± SD): 97.54 ± 8.05%
[7]; 20 μg/ml
  EL-4 cell viability (%, mean ± SD): 91.82 ± 3.48%
[7]; 50 μg/ml
  EL-4 cell viability (%, mean ± SD): 92.67 ± 3.43%
[7]; 100 μg/ml
  EL-4 cell viability (%, mean ± SD): 95.29 ± 2.89%
[7]; 200 μg/ml
  EL-4 cell viability (%, mean ± SD): 99.74 ± 6.14%
